Here are results for three molecules from patent publication US9192569B2, “Formulations for infusion of type B lantibiotics” (Novacta Biosystems Limited, priority 2010, dated 2015).

Data set [1] can be described thus: In vivo plasma half-life in mice. The conditions noted are these: mouse, IV, 9.3 mL/Kg of 3.2 mg/mL solution of Example 1, LC-MS. Here is the method: In vivo Plasma Half-life of Compounds of the Present Invention in Mice.
The in vivo half-life of Compound 1 in mice was determined by measurement of its plasma concentrations at various time points following IV dosing. 18 male CD-1 mice aged 7-9 weeks were dosed IV with a 9.3 mL/Kg dose of a 3.2 mg/mL solution of Example 1 in 15% hydroxyl-propyl-beta-cyclodextrin/4.4% glucose/1 mM potassium phosphate (pH=7.6). Plasma samples were obtained at 10, 20, 30, 60, 120 and 240 min post-dose, sampling from 3 animals at each time point. Concentrations of Compound 1 in plasma were determined by LC-MS quantification.

Data set [2] relates to Staphylococcus aureus methicillin resistant ATCC 33591. The data set can be described thus: Mouse bacteraemia model, SC dosing. The data set is classed as in vivo, mice. Here is the method:
In Vivo Efficacy of Compounds in a Mouse Bacteraemia Model
Groups of 6 male CD-1 (Crl.) derived mice weighing 24±2 g were used. Mice were inoculated intraperitoneally (IP) with an LD90-100 of Staphylococcus aureus methicillin resistant ATCC 33591 (1.1×10^7CFU/mouse) in 0.5 mL of BHI broth containing 5% mucin. Example 1 and vancomycin were dissolved in 15% HPbetaCD/4.4% glucose/0.5 mM KH2PO4, pH 5.0 and doses of 1, 3, 5, 10 and 20 mg/Kg were administered subcutaneously (SC) to test animals at 0, 2 and 24 hour(s) after bacteria challenge. The dosing volume was 5 mL/Kg. Mortality was recorded once daily for 7 days. The ED50 for each compound was determined by nonlinear regression.

Data set [3] shares this test system. The data set is described as follows: Mouse bacteraemia model, second experiment, IV dosing. The data set is classed as in vivo, mice. The settings on record: for number of deaths: 7 days, groups of 6; for survival of mice after 7 days: 1, 3, 5 and 10 mg/kg IV. Here is the method:
In a second experiment Groups of 6 male CD-1 (Crl.) derived mice weighing 24±2 g were used. Mice were inoculated intraperitoneally (IP) with an LD90-100 of Staphylococcus aureus methicillin resistant ATCC 33591 (1.35×10^8 CFU/mouse) in 0.5 mL of BHI broth containing 5% mucin. Example 1 was dissolved in 5% dextrose/1.5 mM potassium phosphate, pH 5.0 and doses of 1, 3, 5 and 10 mg/Kg were administered intravenously (IV) to test animals at 1 and 13 hour(s) after bacteria challenge. The dosing volume was 5 mL/Kg. Mortality was recorded once daily for 7 days.

Data set [4] deals with Methicillin Resistant Staphylococcus aureus (MRSA, ATCC 33591). The data set can be described thus: Neutropaenic mouse thigh infection model. The class given is in vivo, mice. The conditions noted are these: for antimicrobial effect: 5, 10, 20, 30 and 40 mg/Kg x2 IV. Here is the method:
Efficacy of Compounds in a Neutropaenic Mouse Thigh Infection Model.
In vivo efficacy of compounds of the present invention in the treatment of bacterial tissue infections was evaluated using a neutropaenic mouse thigh model.
Groups of 6 male ICR mice weighing 24±2 g were used. Test animals were immuno-suppressed by 2 intraperitoneal injections of cyclophosphamide, the first at 150 mg/Kg 4 days before infection (day-4) and the second at 100 mg/Kg 1 day before infection (day−1). On day 0, individual animals were inoculated intramuscularly (IM) into the right thigh of test animals with 1.15×10^5 CFU/mouse of Methicillin Resistant Staphylococcus aureus (MRSA, ATCC 33591) suspended in 100 μL of sterile PBS, pH 7.4. Vehicle and test substances were administered intravenously (IV) at a dose volume of 6 mL/Kg, 2 and 14 hours after thigh infection. Example 1 and vancomycin were dissolved in 15% hydroxypropyl-beta-cyclodextrin/4.4% glucose/1.5 mM potassium phosphate buffer, pH 7.0 and administered at doses of 5, 10, 20, 30 and 40 mg/Kg. At 26 hours after inoculation, muscle of the right thigh of each test mouse was harvested. From an additional group with no treatment, muscle of the right thigh was harvested at 2 hours after inoculation for the basal CFU determination. The removed muscle tissues were then homogenized in 3-4 mL of PBS, pH 7.4 with a ceramic mortar. Homogenates of 0.1 mL were used for serial 10-fold dilutions and plated on Mueller Hinton broth in 1.5% Bacto agar for CFU determination.

The test system is the same in data set [5]. The data set can be described thus: Neutropaenic mouse thigh infection model, further experiment. The settings on record: IV 2 and 14 h after infection; 2.5-50 mg/Kg; thigh at 26 h. The class given is in vivo, mice. Here is the method: In a further experiment groups of 6 male ICR mice weighing 24±2 g were used. Test animals were immunosuppressed by 2 intraperitoneal injections of cyclophosphamide, the first at 150 mg/Kg 4 days before infection (day-4) and the second at 100 mg/Kg 1 day before infection (day-1). On day 0, individual animals were inoculated intramuscularly (IM) into the right thigh of test animals with 1.5×10^5 CFU/mouse of Methicillin Resistant Staphylococcus aureus (MRSA, ATCC 33591) suspended in 100 μL of sterile PBS, pH 7.4. Vehicle and test substances were administered intravenously (IV) at a dose volume of 8 mL/Kg, 2 and 14 hours after thigh infection. Example 1 was dissolved in 5% dextrose/1 mM potassium phosphate, pH 5.0 and administered at doses of 2.5, 5, 10, 15, 25 and 50 mg/Kg. At 26 hours after inoculation, muscle of the right thigh of each test mouse was harvested. From an additional group with no treatment, muscle of the right thigh was harvested at 2 hours after inoculation for the basal CFU determination. The removed muscle tissues were then homogenized in 3-4 mL of PBS, pH 7.4 with a ceramic mortar. Homogenates of 0.1 mL were used for serial 10-fold dilutions and plated on Mueller Hinton broth in 1.5% Bacto agar for CFU determination.

Data set [6] can be described thus: Laser beam light scattering through cuvette (FIG. 1). The class given is physicochemical. The settings on record: naked eye. The text has this:
FIG. 1 is a series of photographs of two control formulations (glucose and vancomycin) and a formulation of Example 1, after a laser beam has been shone through a cuvette containing the same. […] In each case the presence or absence of the beam in the samples is clearly visible to the naked eye.
The colloid formulation according to the present invention is distinguished from a solution by the fact that a polarised beam of light, such as from laser, shone through the formulation, for example held in a 1 cm cuvette, causes the formulation to scatter light visible to the naked eye therefrom, for example in the form of a beam. Whilst not wishing to be bound by theory, this luminous path may be known as a Tyndall beam or Rayleigh scatter, both of which are a result of the scattering of the light by the particles in the colloid.

A value given as a limit tells only on which side of the number the result lay.

In the case of `CC[C@H](C)[C@@H]1NC(=O)[C@@H]2NC(=O)[C@H](CC(C)C)NC(=O)[C@H](NC(=O)[C@@H]3CSC[C@@H](N)C(=O)N[C@@H](CO)C(=O)NCC(=O)N[C@@H](Cc4c[nH]c5ccccc45)C(=O)N[C@@H](C(C)C)C(=O)N3)[C@H](C)SC[C@H](NC(=O)[C@H](CCC(=O)O)NC1=O)C(=O)NCC(=O)N[C@H]1C(=O)N[C@@H](CC(C)C)C(=O)N[C@@H](C(C)C)C(=O)N[C@@H](CS[C@H]2C)C(=O)N[C@@H](C)C(=O)N[C@H](C(=O)NCc2cc(Cl)cc(Cl)c2)CS[C@H]1C` [Compound 1, Deoxyactagardine B (3,5-dichlorobenzylamine)monocarboxamide], the half-life (commonly the time needed for the level to fall by half in the phase considered) in data set [1] is approximately 2 h.
For `CN[C@H](CC(C)C)C(=O)N[C@H]1C(=O)N[C@@H](CC(N)=O)C(=O)N[C@H]2C(=O)N[C@H]3C(=O)N[C@H](C(=O)N[C@H](C(=O)O)c4cc(O)cc(O)c4-c4cc3ccc4O)[C@H](O)c3ccc(c(Cl)c3)Oc3cc2cc(c3O[C@@H]2O[C@H](CO)[C@@H](O)[C@H](O)[C@H]2O[C@H]2C[C@](C)(N)[C@H](O)[C@H](C)O2)Oc2ccc(cc2Cl)[C@H]1O` [vancomycin, reference compound], the “antimicrobial effect against S. aureus (MRSA) in mice” value in data set [2] (3, 5, 10 and 20 mg/Kg x3, SC) is listed as “significant antimicrobial effect”. In addition, the ED50 (as a rule, the dose at which the effect has come halfway, by size or by number of responders) in data set [2] (Staphylococcus aureus, ATCC33591, SC at 0, 2 and 24 h after challenge, mortality over 7 days, nonlinear regression, read-out: estimated ED50) was 3 mg/kg. Moreover, the number of deaths in data set [3] (1 mg/kg IV at 1 and 13 h) is 5; in data set [3] (3 mg/kg IV at 1 and 13 h), 3; in data set [3] (5 mg/kg IV at 1 and 13 h), 1; in data set [3] (10 mg/kg IV at 1 and 13 h), 0. For the same molecule, the “survival of mice after 7 days” value in data set [3] is “dose-dependent increase in survival”. Also, the “reductions of CFU/g” value in data set [4] (30 mg/kg and above, x2 IV, thigh at 26 h) is more than 100 fold. Besides, in data set [4], the antimicrobial effect entry was “significant antimicrobial effect”. For the same molecule, the “reduction of CFU/g, highest attained” value in data set [4] (doses 5-40 mg/Kg x2 IV, thigh at 26 h) is on record as ≤ 1,000 fold. In data set [5], the “bacterial counts in the thigh tissue (FIG. 3)” value is reported as “dose dependent reduction in the bacterial counts”. Besides, the “visibility of laser beam through formulation (light scattering)” value in data set [6] is reported as “the beam is not visible”.
As for “Deoxyactagardine B (3,5-dichlorobenzylamine)monocarboxamide [Example 1]”, the survival rate in data set [2] (3 mg/Kg, SC) worked out at 100%. Also, in data set [2] (3, 5, 10 and 20 mg/Kg x3, SC), the “antimicrobial effect against S. aureus (MRSA) in mice” value was “significant antimicrobial effect”. Further, the “increase in survival rate” value in data set [2] (3, 5, 10 and 20 mg/Kg x3, SC) is reported as “at least 50%”. For the same molecule, the “estimated ED50” value in data set [2] (SC at 0, 2 and 24 h after challenge, mortality over 7 days, nonlinear regression) is 1.07 mg/kg. Further, the number of deaths was 5 in data set [3] (1 mg/kg IV at 1 and 13 h); 4 in data set [3] (3 mg/kg IV at 1 and 13 h); 1 in data set [3] (5 mg/kg IV at 1 and 13 h); 1 in data set [3] (10 mg/kg IV at 1 and 13 h). For the same molecule, the “survival of mice after 7 days” value in data set [3] was “dose-dependent increase in survival”. Further, in data set [4] (10 mg/kg and above, x2 IV, thigh at 26 h), the “reduction in CFU/g” value was more than 1.000 fold. For the same molecule, the antimicrobial effect result in data set [4] is listed as “significant antimicrobial effect”. Moreover, the “bacterial counts in the thigh tissue (FIG. 3)” value in data set [5] is reported as “dose dependent reduction in the bacterial counts”. For the same molecule, in data set [6], the “visibility of laser beam through formulation (light scattering)” value is on record as “the beam is visible”.
